The values below come from patent US20020147175A1, “Synergistic ECTA compositions” (priority 2000, published 2002).

Holding throughout (format): cell-based, human
Assay [1] deals with H630R10 cells. In words: 96-well crystal violet combination cytotoxicity assay with NB1011. Particulars: for Interaction: interaction with NB1011; for Average combination index (CI): drug combined with NB1011 at constant molar ratio, 96-well crystal violet, 72 hour incubation. The method, then: (§1) Normal human colon epithelial cells (CCD18co) and skin fibroblasts (Det551) were purchased from ATCC (Rockville, Md.). MCF7TDX, human breast carcinoma cells resistant to 2 μM Tomudex were obtained from Dr. Patrick Johnston, Queens University, Belfast. […] The MCF7TDX and the H630R10 cell lines have been previously described in Drake, J. C. et al., 1996 and Copur, S. et al., 1995, respectively.
(§2) All cells were cultured under standard conditions of 37° C., 95% humidified air, 5% CO2 in RPMI 1640 culture medium containing 10% fetal calf serum (Life Technologies) and penicillin/streptomycin/fungizone. MCF7TDX cells were maintained continuously in 2 μM Tomudex, and H630R10 cells were maintained continuously in 10 μM 5-FU. The medium was renewed or the cells were passaged about every three days to maintain optimal growth conditions. Normal cells were passaged a maximum of 15 times to avoid senescence.
(§3) Exponentially rowing cells were transferred at a density of 1.0−5.5×10^3 cells per well to a 96-well tissue culture plate and allowed to attach for 24 hours. Compounds were then applied in duplicate half log serial dilutions. Each compound was tested separately, and mixed together at a single molar ratio approximately equal to the ratio of the individual IC50 values. After an additional 72 hour incubation, cells were washed once with PBS and stained with 0.5% crystal violet in methanol. Plates were washed gently in water to remove unbound stain and allowed to dry overnight. Crystal violet stain bound to the total protein of attached cells was redissolved in Sorenson's buffer (0.025 M sodium citrate, 0.025 M citric acid in 50% ethanol), and absorbance monitored at 535 nm. Sigmoid curves were fit according to the Hill inhibitory Emax model, and IC50 calculated as the average of three or more separate determinations. Where applicable, the combination index for multiple drug effects was calculated according to the median-effect principle (Chou, T. C. and Talalay, P. 1984) using the CalcuSyn software from Biosoft (Ferguson, Mo.). Briefly, the IC50 and the slope parameter (m) for each agent alone were determined from the median effect plot, an x,y plot of log(D) vs log (fa/fu) based on Chou's median effect equation:
(§4) fa/fu=(D/Dm)^m [Equation 1]
(§5) Only experiments with linear correlation coefficients (r)>0.9 were accepted for analysis. A combination index (CI) was then calculated to assess synergism or antagonism according to the following equation which assumes an independent mechanism of drug action (mutual exclusivity):
(§6) CI=(D)1/(Dx)1+(D)2/(Dx)2+(D)1(D)2/(Dx)1(Dx)2 [Equation 2]
(§7) where (D)1 and (D)2 are the concentrations of drug 1 and drug 2 which combined produce x% inhibition, and (Dx)1 and(Dx)2 are the concentrations of each drug which alone produce x% inhibition. CI=1 indicates an additive interaction, CI<1 indicates synergy, and CI>1 indicates antagonism. For each experiment CI's from several different effect levels and concentrations of a constant molar ratio were averaged.
(§8) The 96-well format was chosen for more detailed drug interaction studies. […] To analyze whether any of these drugs would enhance the activity of NB1011 specifically in tumor cells, two normal cell types, Det551 and CCD18co, were included in the assays.

The subject of assay [2] is MCF7TDX cells. Described as above. Particulars: for Interaction: interaction with NB1011; for Average combination index (CI): drug combined with NB1011 at constant molar ratio, 96-well crystal violet, 72 hour incubation. The method, then:
as §1, §2, §3, §4, §5, §6, §7, §8

Assay [3] relates to CCD18co normal colon epithelial cells. Described as above. Particulars: for Average combination index (CI): drug combined with NB1011 at constant molar ratio, CCD18co normal cells, 96-well crystal violet, 72 hour incubation; for Interaction: interaction with NB1011, CCD18co. The method, then:
as §1, §2, §3, §4, §5, §6, §7, §8

Assay [4] deals with Det551 normal skin fibroblasts. The description is as above. Particulars: for Average combination index (CI): drug combined with NB1011 at constant molar ratio, Det551 normal cells, 96-well crystal violet, 72 hour incubation; for Interaction: interaction with NB1011, Det551. The method, then: as §1, §2, §3, §4, §5, §6, §7, §8
In assay [5] the test system is H630R10 cells. The assay is described as follows: 384-well alamarBlue interaction screening assay with NB1011. Particulars: drug combined with NB1011, 5-day incubation, average of at least 4 consecutive dose/effect levels. The method, then: as §1, §2
(§9) 500 cells per well were transferred to a 384-well tissue culture plate (Corning Inc., Corning, N.Y.) and allowed to attach for 24 hours in standard culture conditions. Compounds were then applied in a bidirectional (checker board) pattern (Chou, T. C. and Talalay, P. 1984). Following a 5-day incubation, the redox indicator dye, alamarBlue (AccuMed International, Westlake, Ohio) was added to each well at a 10% v/v ratio, and fluorescence was monitored at 535 excitation, 595 emission. Cytotoxic effect levels and drug interactions were assessed by the combination index method (Chou, T. C. and Talalay, P. 1984 and Bible, K. C. et al. 1997), described briefly below.
as §5, §6, §7
(§10) In general, a combination index of <1 indicates synergy, ˜1 indicates additivity, and >1 indicates antagonism (Pegram, M. D. et al. (1999)).

The subject of assay [6] is MCF7TDX cells. The description is as above. Particulars: drug combined with NB1011, 5-day incubation, average of at least 4 consecutive dose/effect levels. The method, then:
as §1, §2, §9, §5, §6, §7, §10

For the compound `COc1cccc2c1C(=O)c1c(O)c3c(c(O)c1C2=O)C[C@@](O)(C(=O)CO)C[C@@H]3O[C@H]1C[C@H](N)[C@H](O)[C@H](C)O1` [Doxorubicin], the Interaction entry in the assay on H630R10 cells [1] and in the assay with MCF7TDX cells [2] was “Ant” throughout.
As to `O=[N+]([O-])c1ccc(CSc2ncnc3c2ncn3C2OC(CO)C(O)C2O)cc1` (stereo not shown) [NBMPR, p-nitrobenzylthioinosine], the “Average combination index (CI)” value worked out at 0.35 with H630R10 cells [1], 3.93 in assay [3], 1.43 in assay [4] and 0.57 with MCF7TDX cells [2]. The Interaction entry in the assay with H630R10 cells [1] is on record as “Syn”; in assay [3], “Ant”; in assay [4], “Ant”; with MCF7TDX cells [2] it was “Syn”.
As to `CC(=O)O[C@H]1C(=O)[C@@]2(C)[C@H]([C@H](OC(=O)c3ccccc3)[C@]3(O)C[C@H](OC(=O)[C@H](O)[C@@H](NC(=O)c4ccccc4)c4ccccc4)C(C)=C1C3(C)C)[C@]1(OC(C)=O)CO[C@@H]1C[C@@H]2O` [Taxol], the “Combination Index ± s.e.m.” value in the assay with H630R10 cells [5] stood at 0.99 ± 0.15.
Regarding `O=C1[O][Pt]2([NH][C@@H]3CCCC[C@H]3[NH]2)[O]C1=O` [Oxaliplatin], the Interaction entry in the assay with H630R10 cells [1] and with MCF7TDX cells [2] was “Ant” throughout.
Turning to `OCCN(CCO)c1nc(N2CCCCC2)c2nc(N(CCO)CCO)nc(N3CCCCC3)c2n1` [Dipyridamole, dipyridamole], the “Average combination index (CI)” value worked out at 0.75 with H630R10 cells [1], 1.30 in assay [3], 1.17 in assay [4] and 0.51 in the assay on MCF7TDX cells [2]. Moreover, the Interaction entry with H630R10 cells [1] is given as “Syn”; in assay [3], “Ant”; in assay [4], “Add”; in the assay with MCF7TDX cells [2], “Syn”.
As for `CCc1c2c(nc3ccc(OC(=O)N4CCC(N5CCCCC5)CC4)cc13)-c1cc3c(c(=O)n1C2)COC(=O)[C@]3(O)CC` [Irinotecan], the “Combination Index ± s.e.m.” value in the assay with H630R10 cells [5] stood at 1.26 ± 0.20.
As for `CC[C@]1(O)C[C@@H]2CN(CCc3c([nH]c4ccccc34)[C@@](C(=O)OC)(c3cc4c(cc3OC)N(C)[C@H]3[C@@](O)(C(=O)OC)[C@H](OC(C)=O)[C@]5(CC)C=CCN6CC[C@]43[C@@H]65)C2)C1` [Vinblastine], the Interaction result was “Syn” with H630R10 cells [1], “Syn” in assay [3], “Syn” in assay [4] and “Ant” with MCF7TDX cells [2]. For the same compound, in the assay on H630R10 cells [5], the “Combination Index ± s.e.m.” value came out at 0.78 ± 0.32.
Turning to `N.N.[Cl][Pt][Cl]` [Cisplatin], the “Combination Index ± s.e.m.” value in the assay with MCF7TDX cells [6] worked out at 1.51 ± 0.35.
